From patent US8674115B2, “CRTH2 modulators” (Ironwood Pharmaceuticals, Inc., priority 2009, dated 2014) come the findings set out here.

Experiment [1] has as its target T1, CRTH2 (Homo sapiens, UniProt Q9Y5Y4).
T1 sequence (Q9Y5Y4 1-395): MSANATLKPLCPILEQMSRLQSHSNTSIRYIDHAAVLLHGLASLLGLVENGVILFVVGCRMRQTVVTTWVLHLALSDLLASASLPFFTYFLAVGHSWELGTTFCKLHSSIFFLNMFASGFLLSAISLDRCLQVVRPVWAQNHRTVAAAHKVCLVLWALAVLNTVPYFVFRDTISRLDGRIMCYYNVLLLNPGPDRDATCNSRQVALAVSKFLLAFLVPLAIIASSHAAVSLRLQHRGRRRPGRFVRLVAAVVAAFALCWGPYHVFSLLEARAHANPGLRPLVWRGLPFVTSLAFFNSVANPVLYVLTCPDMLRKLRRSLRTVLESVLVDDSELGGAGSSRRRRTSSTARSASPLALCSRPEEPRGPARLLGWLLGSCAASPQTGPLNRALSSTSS
Briefly: Human whole blood CD11b antagonist assay (CD11b expression in eosinophils). The format is cell-based. Also noted: endogenous in cells; host or cells: eosinophils in human whole blood. To be noted: challenged with 10 nM 15R-Methyl-PGD2, read-out: CD11b Antag IC50(nM) [HuEos-HuWB-vs10nM15R]. As for the experimental part: Human Whole Blood CD11B Antagonist Assay (Modified from Nicholson, et al. Pulmonary Pharmacology and Therapeutics: 20 (2007); 52-59).
The potential CRTH2 antagonist activity of certain compounds was tested in human whole blood using an assay that tests the ability of the compounds to block the CD11b expression in eosinophils by 15-R-methyl-PGD2. A CRTH2 antagonist should block CD11b expression by subsequently added 15-Methyl-PGD2. Human whole blood (200 μL) was incubated at 37° C. for 10 minutes in the presence of various concentrations of test compounds before being challenged with the agonist 15R-Methyl-PGD2 (10 nM). Reactions were terminated by the addition of ice-cold PBS+0.5% BSA+2 mMEDTA (1 mL) and centrifugation (300×g for 5 minutes at 4° C.) Cells were then incubated at 4° C. for 10 min in the presence of human IgG. Cells were then incubated for 30-45 min with a mixture of PE-Cy5-labeled mouse anti-human CD16 (10 ul; BD Biosciences) and FITC-labeled mouse anti-human CD11b (10 μL; Beckman Coulter.) After rinsing (1 mL ice-cold PBS+0.5% BSA+2 mMEDTA), red blood cells were lysed by the addition of 1 mL ice-cold H2O to the cell pellet for 30 sec-1 min immediately followed by the addition of 3.5% NaCl (300 μL.) Cells were then rinsed (2×-1 ml ice cold PBS+0.5% BSA+2 mMEDTA) and fixed in PBS containing 1% formaldehyde. The distribution of fluorescence intensities was measured by flow cytometry. Eosinophils were gated out on the basis of their granularity (high side scatter) and absence of CD-16. CD11b was then measured on this eosinophil population on the basis of fluorescence due to FITC.

In experiment [2] the target is T1, CRTH2. The experiment is described as follows: DPBS CD11b antagonist assay (CD11b expression in eosinophils). The format is cell-based. To be noted: challenged with 10 nM 15R-Methyl-PGD2, read-out: CD11b Antag IC50(nM) [HuEos-DPBS-vs10nM15R]. As to the method:
DPBS CD11b Antagonist Assay.
The potential CRTH2 antagonist activity of certain compounds was tested using a CD11b expression assay using essentially the method described by Monneret et al. (J Pharmacol Exp Ther 304:349-55, 2003). Briefly, polymorphonuclear cells (0.5 ml; 10^6/ml cells) in PBS containing 0.9 mM CaCl2 and 0.5 mM MgCl2) were preincubated with various concentrations of test compounds at room temperature for 10 minutes before they were challenged with the agonist 15R-Methyl-PGD2 (10 nM). The incubations were terminated by the addition of ice-cold FACSFlow (BD Biosciences; Cat# 342003) and centrifugation (400 g for 5 minutes at 4° C.). The cells were then incubated for 30 minutes at 4° C. with a mixture of PE-labeled mouse anti-human VLA-4 (5 μl; BD Biosciences) and FITC-labeled mouse anti-human CD11b (10 μl; Beckman Coulter). The cells were then incubated with Optilyse C (0.25 ml; Beckman Coulter) for 15 minutes, centrifuged, and then fixed in PBS (0.4 ml; calcium and magnesium free) containing 1% formaldehyde. The distribution of fluorescence intensities among 60,000 cells was measured by flow cytometry. Eosinophils were gated out on the basis of their granularity (high side scatter) and labeling with VLA-4 (PE fluorescence). CD11b was then measured in the eosinophil region on the basis of fluorescence due to FITC. All data were corrected for the value obtained for the corresponding isotope control antibody.

Bounds are passed on as bounds.

Regarding `Cc1c(Cc2ccccc2S(=O)(=O)c2ccccc2)cc(-c2ccncc2)n1CC(=O)O` [I-1, 2-(2-methyl-3-(2-(phenylsulfonyl)benzyl)-5-(pyridin-4-yl)-1H-pyrrol-1-yl)acetic acid], the concentration for half-maximal inhibition (IC50) in experiment [1] was less than 5 nM. The same measure, in the same setting: to `Cc1c(Cc2ccccc2S(=O)(=O)c2ccccc2)cc(-c2cccnc2)n1CC(=O)O` [I-2, 2-(2-methyl-3-(2-(phenylsulfonyl)benzyl)-5-(pyridin-3-yl)-1H-pyrrol-1-yl)acetic acid] belongs 5 to 100 nM; to `Cc1c(Cc2ccccc2S(=O)(=O)N2CCOCC2)c(C#N)c(-c2ccccc2)n1CC(=O)O` [I-3, 2-(3-cyano-5-methyl-4-(2-(morpholinosulfonyl)benzyl)-2-phenyl-1H-pyrrol-1-yl)acetic acid], 5 to 100 nM. As to `Cc1c(Cc2ccccc2S(=O)(=O)c2ccccc2)c(C#N)c(-c2ccccc2)n1CC(=O)O` [I-4, 2-(3-cyano-5-methyl-2-phenyl-4-(2-(phenylsulfonyl)benzyl)-1H-pyrrol-1-yl)acetic acid], the 50% inhibitory concentration (IC50) in experiment [2] is less than 5 nM; in experiment [1], 5 to 100 nM. The like results for `Cc1c(Cc2ccccc2S(=O)(=O)c2ccccc2)cc(-c2ccccc2)n1CC(=O)O` [I-6, 2-(2-methyl-5-phenyl-3-(2-(phenylsulfonyl)benzyl)-1H-pyrrol-1-yl)acetic acid] were, in that order, less than 5 nM and 100 to 500 nM. Take `Cc1c(Cc2ccccc2S(=O)(=O)c2ccccc2)cc(-c2cccc(F)c2)n1CC(=O)O` [I-8, 2-(5-(3-fluorophenyl)-2-methyl-3-(2-(phenylsulfonyl)benzyl)-1H-pyrrol-1-yl)acetic acid]: the IC50 in experiment [1] fell in the range of 5 to 100 nM. Take `Cc1cc(Cc2ccccc2S(=O)(=O)N2CCCC2)c(C)n1CC(=O)O` [I-9, 2-(2,5-dimethyl-3-(2-(pyrrolidin-1-ylsulfonyl)benzyl)-1H-pyrrol-1-yl)acetic acid]: the half-inhibitory concentration (IC50) in experiment [2] and in experiment [1] was 5 to 100 nM throughout.

Take `Cc1c(Cc2ccccc2S(=O)(=O)N2CCCC2)c(C#N)c(-c2ccccc2)n1CC(=O)O` [I-11, 2-(3-cyano-5-methyl-2-phenyl-4-(2-(pyrrolidin-1-ylsulfonyl)benzyl)-1H-pyrrol-1-yl)acetic acid]: the concentration for half-maximal inhibition (IC50) in experiment [1] lay in the range of 5 to 100 nM. Same read-out and setting: to `Cc1c(Cc2ccccc2S(=O)(=O)c2ccccc2)c(-c2ccccc2)c(-c2ccccc2)n1CC(=O)O` [I-12, 2-(2-methyl-4,5-diphenyl-3-(2-(phenylsulfonyl)benzyl)-1H-pyrrol-1-yl)acetic acid] belongs 5 to 100 nM. The same measure, in the same setting: to `Cc1c(Cc2ccccc2S(=O)(=O)N2CCOCC2)cc(-c2ccccc2)n1CC(=O)O` [I-13, 2-(2-methyl-3-(2-(morpholinosulfonyl)benzyl)-5-phenyl-1H-pyrrol-1-yl)acetic acid] belongs 5 to 100 nM; to `Cc1c(Cc2ccccc2S(=O)(=O)N2CCCC2)c(C#N)c(C2CCCCC2)n1CC(=O)O` [I-14, 2-(3-cyano-2-cyclohexyl-5-methyl-4-(2-(pyrrolidin-1-ylsulfonyl)benzyl)-1H-pyrrol-1-yl)acetic acid], 100 to 500 nM.

Regarding `Cc1c(Cc2ccccc2S(=O)(=O)c2ccccc2)cc(-c2ccc(F)cc2)n1CC(=O)O` [I-15, 2-(5-(4-fluorophenyl)-2-methyl-3-(2-(phenylsulfonyl)benzyl)-1H-pyrrol-1-yl)acetic acid], the half-inhibitory concentration (IC50) in experiment [1] was 100 to 500 nM.

In the case of `Cc1c(Cc2ccccc2S(=O)(=O)N2CCCC2)cc(-c2ccccc2)n1CC(=O)O` [I-16], the IC50 in experiment [1] fell in the range of 100 to 500 nM. As to `Cc1c(Cc2ccccc2S(=O)(=O)c2ccccc2)cc(-c2ccccn2)n1CC(=O)O` [I-17, 2-(2-methyl-3-(2-(phenylsulfonyl)benzyl)-5-(pyridin-2-yl)-1H-pyrrol-1-yl)acetic acid], in experiment [1], the IC50 was in the range of 100 to 500 nM. On to `Cc1c(Cc2ccccc2S(=O)(=O)c2ccccc2)cc(-c2ccccc2F)n1CC(=O)O` [I-18, 2-(5-(2-fluorophenyl)-2-methyl-3-(2-(phenylsulfonyl)benzyl)-1H-pyrrol-1-yl)acetic acid], for which, in experiment [1], the IC50 is more than 500 nM.

For `Cc1c(Cc2ccc(S(=O)(=O)N3CCCC3)cc2)c(C)n(CC(=O)O)c1CCO` [I-20, 2-(2-(2-hydroxyethyl)-3,5-dimethyl-4-(4-(pyrrolidin-1-ylsulfonyl)benzyl)-1H-pyrrol-1-yl)acetic acid], in experiment [2], the IC50 was more than 500 nM. As to `Cc1c(C#N)c(Cc2ccccc2S(=O)(=O)c2ccccc2)c(C)n1CC(=O)O` [I-23, 2-(3-cyano-2,5-dimethyl-4-(2-(phenylsulfonyl)benzyl)-1H-pyrrol-1-yl)acetic acid], the values for the IC50 in experiment [2] and in experiment [1] were less than 5 nM and 5 to 100 nM, respectively. `Cc1c(Cc2ccccc2S(=O)(=O)c2ccccc2)cc(-c2ccc(C(F)(F)F)cc2)n1CC(=O)O` [I-25, 2-(2-methyl-3-(2-(phenylsulfonyl)benzyl)-5-(4-(trifluoromethyl)phenyl)-1H-pyrrol-1-yl)acetic acid]: the IC50 in experiment [2] is 5 to 100 nM; in experiment [1], more than 500 nM. With `Cc1c(Cc2ccccc2S(=O)(=O)c2ccccc2)cc(-c2ccccc2C(F)(F)F)n1CC(=O)O` [I-27, 2-(2-methyl-3-(2-(phenylsulfonyl)benzyl)-5-(2-(trifluoromethyl)phenyl)-1H-pyrrol-1-yl)acetic acid], the concentration for half-maximal inhibition (IC50) in experiment [1] is more than 500 nM. Consider `Cc1cc(Sc2ccccc2S(=O)(=O)N2CCOCC2)c(C)n1CC(=O)O` [I-29, 2-(2,5-dimethyl-3-(2-(morpholinosulfonyl)phenylthio)-1H-pyrrol-1-yl)acetic acid], for which the IC50 in experiment [2] is less than 5 nM; in experiment [1], 5 to 100 nM. With `Cc1c(C#N)c(Cc2ccccc2S(=O)(=O)N2CCCC2)c(C)n1CC(=O)O` [I-32, 2-(3-cyano-2,5-dimethyl-4-(2-(pyrrolidin-1-ylsulfonyl)benzyl)-1H-pyrrol-1-yl)acetic acid], the half-maximal inhibitory concentration (IC50) in experiment [2] is less than 5 nM; in experiment [1], 5 to 100 nM. The like results for `Cc1c(C#N)c(Cc2ccccc2S(=O)(=O)N2CCOCC2)c(C)n1CC(=O)O` [I-46, 2-(3-cyano-2,5-dimethyl-4-(2-(morpholinosulfonyl)benzyl)-1H-pyrrol-1-yl)acetic acid] were, in that order, 5 to 100 nM and 5 to 100 nM. Take `CC(=O)c1c(Cc2ccccc2S(=O)(=O)c2ccccc2)c(C)n(CC(=O)O)c1C` [I-52, 2-(3-acetyl-2,5-dimethyl-4-(2-(phenylsulfonyl)benzyl)-1H-pyrrol-1-yl)acetic acid]: the IC50 in experiment [2] was less than 5 nM; in experiment [1] it was 5 to 100 nM.

Regarding `CC(=O)c1c(Cc2ccccc2S(=O)(=O)N2CCCC2)c(C)n(CC(=O)O)c1C` [I-53, 2-(3-acetyl-2,5-dimethyl-4-(2-(pyrrolidin-1-ylsulfonyl)benzyl)-1H-pyrrol-1-yl)acetic acid], the IC50 in experiment [2] is less than 5 nM; in experiment [1], 5 to 100 nM.

On to `Cc1c(Cc2ccccc2S(=O)(=O)N2CCCC2)c(C(=O)c2ccccc2)c(C)n1CC(=O)O` [I-55, 2-(3-benzoyl-2,5-dimethyl-4-(2-(pyrrolidin-1-ylsulfonyl)benzyl)-1H-pyrrol-1-yl)acetic acid], for which the values for the IC50 in experiment [2] and in experiment [1] were less than 5 nM and 5 to 100 nM, respectively. As to `Cc1c(C#N)c(CC(=O)O)c(C)n1Cc1ccccc1S(=O)(=O)N1CCCC1` [I-73, 2-(4-cyano-2,5-dimethyl-1-(2-(pyrrolidin-1-ylsulfonyl)benzyl)-1H-pyrrol-3-yl)acetic acid], the IC50 in experiment [1] is more than 500 nM.
